The values that follow come from publication PMC12845078 (Pharmaceuticals, 2025).

Series [1] can be described thus: Whole blood/plasma distribution ratio, mouse. It counts as in vitro ADME.
Method: (§4) After incubation for 20 min, a portion of the whole blood was centrifuged at 2500× g for 10 min at 4 °C to separate plasma; another portion of the whole blood was subjected to three cycles of freeze–thawing and ultrasonicated for 10 min to disrupt cells. Equal volumes of plasma and whole blood samples were added to the whole blood and plasma specimens, respectively, followed by protein precipitation with acetonitrile containing an internal standard (IS). […] The RED inserts were placed in the matching incubation plate: 200 µL of drug-containing matrix were added to the sample chamber, and 400 µL of PBS buffer (pH: 7.4) were added to the buffer chamber. After incubation in a constant-temperature shaking incubator for 6 h (37 °C), samples from the sample chamber and buffer chamber were diluted 1:1 with PBS or matrix, respectively, and proteins were precipitated with acetonitrile containing IS.
Series [2] is described as follows: Protein binding with hepatic microsomes and plasma proteins across species (summary). It counts as in vitro ADME. Conditions: beagle (dog), rat, human, liver microsomes and plasma, pH 7.4, both hepatic microsomes and plasma proteins. A general note: Microsomes from liver hold many membrane-bound enzymes, among them those of drug oxidation.
Method: as §4
Series [3] addresses T1, CYP enzymes involved in melatonin 6-hydroxylation (Rattus norvegicus, UniProt P04799).
T1 sequence (P04799 2-513): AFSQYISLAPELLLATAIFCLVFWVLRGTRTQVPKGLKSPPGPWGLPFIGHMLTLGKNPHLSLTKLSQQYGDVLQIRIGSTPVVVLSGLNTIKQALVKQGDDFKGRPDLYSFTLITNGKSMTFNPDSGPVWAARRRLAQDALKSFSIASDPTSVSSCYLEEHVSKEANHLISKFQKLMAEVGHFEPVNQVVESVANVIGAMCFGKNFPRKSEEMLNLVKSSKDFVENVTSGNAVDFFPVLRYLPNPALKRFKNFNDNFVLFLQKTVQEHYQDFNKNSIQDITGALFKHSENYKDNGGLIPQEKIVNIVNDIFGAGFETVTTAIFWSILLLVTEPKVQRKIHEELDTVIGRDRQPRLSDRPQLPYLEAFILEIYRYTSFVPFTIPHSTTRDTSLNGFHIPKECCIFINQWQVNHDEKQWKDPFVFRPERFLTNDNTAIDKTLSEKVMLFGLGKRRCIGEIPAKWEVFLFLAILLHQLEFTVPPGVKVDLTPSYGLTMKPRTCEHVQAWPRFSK
Nature of the series: Competitive inhibition of CBD on MT 6-hydroxylation, rat liver microsomes. It counts as in vitro ADME. Conditions: probe melatonin (MT) 1 μM, 6-hydroxylation to 6-HMT. The method, then: (§1) The final incubation system contained 100 mM PBS, 5 mM MgCl2, 0.5 mg/mL liver microsomal protein, and 1 mM NADPH. […] The final concentration of MT was 1 μM.

For series [4], the target named is T2, CYP enzymes involved in melatonin 6-hydroxylation (Homo sapiens, UniProt P05177).
T2 construct: tissue XenoTech; host or cells: human liver microsomes
T2 sequence (P05177 1-516): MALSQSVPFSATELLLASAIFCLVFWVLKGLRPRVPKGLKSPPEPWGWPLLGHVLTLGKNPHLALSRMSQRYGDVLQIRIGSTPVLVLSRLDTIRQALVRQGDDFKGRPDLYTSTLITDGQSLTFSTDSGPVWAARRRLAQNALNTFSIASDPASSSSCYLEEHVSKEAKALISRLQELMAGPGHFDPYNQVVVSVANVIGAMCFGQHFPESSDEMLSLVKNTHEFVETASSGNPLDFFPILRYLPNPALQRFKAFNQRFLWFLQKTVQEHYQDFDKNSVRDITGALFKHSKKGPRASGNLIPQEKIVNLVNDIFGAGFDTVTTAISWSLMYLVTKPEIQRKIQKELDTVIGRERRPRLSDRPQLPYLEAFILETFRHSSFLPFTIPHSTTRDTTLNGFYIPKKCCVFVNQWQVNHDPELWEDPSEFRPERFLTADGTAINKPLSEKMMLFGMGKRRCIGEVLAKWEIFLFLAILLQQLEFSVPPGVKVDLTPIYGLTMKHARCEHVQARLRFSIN
Nature of the series: Competitive inhibition of CBD on MT 6-hydroxylation, human liver microsomes. It counts as in vitro ADME. Conditions: human, liver microsomes, probe melatonin (MT) 1 μM, 6-hydroxylation to 6-HMT. Here is the method: as §1

The target of series [5] is T3, CYP enzymes mediating MT 6-hydroxylation in human liver microsomes (CYP1A2) (Homo sapiens, UniProt P05177).
T3 construct: tissue XenoTech; host or cells: human liver microsomes
T3 sequence (P05177 1-516): T2 sequence (P05177 1-516)
The series is described as follows: Irreversible (mechanism-based) inhibition of CBD on MT 6-hydroxylation, human liver microsomes. The format is in vitro ADME. Here is the method: (§2) The reaction was initiated by adding the NADPH working solution that had also been pre-incubated for 5 min. […] After pre-incubation for different durations (0, 5, 10, 20, 30 min), 10 μL of the incubation mixture were transferred to a secondary incubation system containing 148 μL PBS and 2 μL MT working solution (final MT concentration: 200 μM). An additional 40 μL of NADPH were added, and the mixture was incubated for 30 min.
(§3) Irreversible inhibition assays: A semi-logarithmic curve was generated by plotting residual enzyme activity against pre-incubation time. The observed CYP enzyme inactivation rate (Kobs) was derived from the initial slope of the linear regression. The Lineweaver-Burk double reciprocal curve (1/Kobs vs. 1/I) described by Formula (8) was used to determine KI and Kinact: Kinact was estimated from the reciprocal of the Y-intercept, and KI was obtained from the negative reciprocal of the X-intercept.(8) 1/k=KI/Kinact1/I+1/Kinact

Series [6] addresses T4, CYP1A2 (CYP enzymes mediating MT 6-hydroxylation) (Homo sapiens, UniProt P05177).
T4 construct: tissue XenoTech; host or cells: human liver microsomes
T4 sequence (P05177 1-516): T2 sequence (P05177 1-516)
The description is as above. The format is in vitro ADME. The settings on record: probe melatonin (MT) 200 µM, 6-hydroxylation to 6-HMT. The method, then: as §2, §3

Series [7] relates to CYP enzymes mediating MT 6-hydroxylation in rat liver microsomes. The series is described as follows: Irreversible (mechanism-based) inhibition of CBD on MT 6-hydroxylation, rat liver microsomes. The format is in vitro ADME. Here is the method:
as §2, §3

For series [8], the system named is CYP enzymes of MT 6-hydroxylation. Nature of the series: in vitro. Conditions: rat, liver microsomes, probe melatonin (MT) 2 μM, 6-hydroxylation to 6-HMT, IC50 Ratio (IC50 shift), RLM, 30 min pre-incubation with/without NADPH.
Method: (§5) The reaction was initiated by adding pre-warmed NADPH (control groups lacked NADPH). The final incubation mixture contained 100 mM PBS, 5 mM MgCl2, liver microsomes (0.5 mg/mL), 1 mM NADPH, and 0.2% BSA. […] Concentrations in beagle dog microsomal incubations were 0, 0.125, 0.25, 0.5, 1, 2, 4, 8, 16, and 32 μM. […] All samples were prepared in triplicate. The concentration of 6-HMT was quantified using LC-MS/MS.
(§6) Competitive inhibition and time-dependent inhibition assays: The production of 6-HMT without inhibitors was set as 100%.
Series [9] shares this test system. Nature of the series: in vitro. Conditions: beagle, dog, liver microsomes, probe melatonin (MT) 2 μM, 6-hydroxylation to 6-HMT, IC50 Ratio (IC50 shift), DLM, 30 min pre-incubation with/without NADPH.
Method: as §5, §6
Series [10] concerns CYP1A2-mediated metabolism of MT. Conditions: cited from earlier work.
Series [11] concerns liver microsomes from different species. The series is described as follows: Effect of MT on in vitro metabolism of CBD in liver microsomes. It counts as in vitro ADME, human, rat, beagle. The settings on record: CBD 1 μM, MT up to 32 μM. Here is the method: The reaction was initiated by adding pre-incubated NADPH. The system contained liver microsomes at 0.5 mg/mL and NADPH at 1 mM (both diluted in PBS containing MgCl2). […] All samples were prepared in triplicate. The content of CBD was determined by LC-MS/MS.

Series [12] relates to CYP1A2-mediated metabolism of MT. The series is described as follows: Static DDI model prediction of CBD's impact on MT exposure, human. Conditions: input of static DDI model. The text has this: (AUC when co-administered with the inhibitor) to AUC[contr] (AUC without the inhibitor).
The conditions of series [13]: read-out: Km of MT 6-hydroxylation; HLM.
A short description of series [14]: in vitro. Conditions: rat, liver microsomes.
Series [15] in a line: in vitro. Conditions: human, liver microsomes, Km of MT 6-hydroxylation, HLM.

In general, fraction unbound refers to the share of the substance not bound to proteins or other matrix. The term IC50 denotes the concentration needed to halve the response being measured. The term kinact denotes the rate constant of inactivation at saturating inhibitor. The Km is the substrate concentration at which the rate is half of its maximum.

Take `C=C(C)[C@@H]1CCC(C)=C[C@H]1c1c(O)cc(CCCCC)cc1O` [CBD, Cannabidiol]: the “Rb/p (Ratio)” value in [1] was 0.82 (0.19). In series [2], this compound came in with a free fraction (fraction unbound) at 6 h of less than 0.01. For the same compound, the IC50 at 30 min in series [3] (human, IC50, inhibition of MT 6-hydroxylation, hepatic microsomes of other species (not beagle)) is 13.5 to 36.5 µM; in series [3] (IC50, inhibition of MT 6-hydroxylation, RLM, MT 1 μM), 13.5 ± 1.15 µM; in series [3] (IC50, rat, as listed in Table 6 for static DDI model), 9.51 µM; in series [4], 3.39 µM. For the same compound, the Ki in [5] was 25.6 µM; in series [6] (human, liver microsomes), 0.0187 µM. The kinact in series [6] (human liver microsomes) was 0.00105 s⁻¹. The irreversible inhibitory effect entry in series [7] is “no irreversible inhibitory effect was observed”. The IC50 shift at 30 min in series [8] was determined as 1.81; in [9], 1.27. Besides, the “[I]h (estimated free concentration in liver)” value in series [10] (human, CBD dose 2000 mg) was 3.55 µM. In series [10] (oral administration of 2000 mg CBD), the “[I]h, concentration adopted for human” value was 3.55 µM.
Regarding `COc1ccc2[nH]cc(CCNC(C)=O)c2c1` [MT, Melatonin], the “competitive inhibition of CBD metabolism by MT” value in [11] is reported as “does not exert competitive inhibition on CBD”. In [12], the “fm(CYP1A2), proportion of MT metabolized by CYP1A2” value is 0.92. Further, the Km in series [13] was 165 µM. The Km at 15 min in series [14] was found to be 147 µM; in [15], 165 µM.
